{
  "source": "paper PMC8653149",
  "about": "“Cyclic Analogs of Desferrioxamine E Siderophore for ^68Ga Nuclear Imaging: Coordination Chemistry and Biological Activity in Staphylococcus aureus” (Inorganic Chemistry, 2021)",
  "key": {"[1]": {"conditions": "cited from earlier work"}, "[2]": {"conditions": "cited from earlier work", "remark": "listed apart in the source"}, "[3]": {"test": "Water solubility of the ligands", "type": "physicochemical", "conditions": "H2O and H2O/DMSO 70/30 w/w mixture; concentrations used in assays", "experimental": "Elaborated solution thermodynamic studies combining several methods were performed in order to investigate those properties. Five FOXE analogs were water soluble in at least 1 × 10^–3 M concentration. […] Major results of physicochemical analysis for analogs characterized by most desirable properties are summarized below."}, "[4]": {"test": "Distribution coefficient (logD) of ^68Ga-labeled ligands between octanol and PBS"}, "[5]": {"test": "Ga(III) complex stability constants by Fe(III)–Ga(III) metal–metal competition, potentiometric and UV–vis pH-metric titrations", "type": "physicochemical", "description": "The next step was to determine the coordination specificity of investigated ligands toward Ga(III) ions. This is a somewhat challenging task because it requires indirect methods since the investigated complexes started to form in a very acidic environment, where potentiometric measurements were not accurate owing to the error of the glass electrode,[55],[56] and gallium is spectroscopically silent in UV–vis. To bypass this inconvenience, we implemented metal–metal competition assays. After addition of a significant molar excess of Ga(III), the LMCT band of Fe(III)-FOXE analog complexes was almost fully silenced as Ga(III) replaced Fe(III) in its complexes (Figure S5). By implementing those spectral changes, we were able to calculate the stability constants of the Ga(III)-FOXE analog species present below or around pH 2, [GaHL]^+ (Table S8). Stability constants for the [GaL] species, present above pH 2, could be determined by potentiometric titrations for Ga(III)-FOX 2-2, 2-3, 2-4, and 3-5, with logβ of [GaHL]^+ fixed in the calculations (Table S8). For Ga(III)-FOX 2-5, we could not observe any deprotonation step using this methodology. To confirm this behavior, UV–vis titration of the Ga(III)-FOX 2-5 analog complex was performed in the 200–300 nm spectral range (Figure S6) corresponding to the hydroxamate groups’ protonation state.[57]−[59] […] Above pH 4, there were no significant changes in maxima localization or absorbance intensity. Above pH 9, absorbance started to rise again, which indicated complex dissociation. […] Overall, the data indicated a decreased stability of [GaL] species when decreasing or increasing the ring size of Ga(III)-FOX 2-5, as reflected by pKNHOH (Table S8). Implementing this full coordination specification of Ga(III)-FOX complexes, we were able to calculate speciation plots which are presented in Figure 1 for the most efficient analogs FOX 2-4 and FOX 2-5, given here as examples, and in Figure S7 for others.\nProposed biomimetic analogs of cyclic siderophore FOXE bind Fe(III) ions starting from pH around 0, and the complexation is essentially complete far below or around pH of 2. Therefore, the stability constants of the first species formed in solution were determined from the spectrophotometric pH-dependent batch titrations carried out in the pH range of around 0.1–2 (Figure S3), by following the changes in the intense LMCT band of the metal complex. These values were further used as constant values in spectrophotometric or potentiometric titrations carried out in the pH range from 2 to 11 (Figure S3) to get the overall stability constants, logβFeL (Table S5). Since Ga(III)-FOX complexes present similar coordination properties, the first species start to form below pH 2 as well. However, in this case, we have used indirect methods to determine stability constants for Ga(III)-FOXE analogs and the Ga(III) complex with native FOXE, as Ga(III) complexes are spectroscopically silent in the UV–vis region. Metal–metal competition titrations were carried out at pH 1.6 for FOX 2-5 and FOX 2-4 and at pH 2 for the rest of the analogs and the native compound. The intense LMCT band of the Fe(III) complex was silenced after addition of a fixed volume of Ga(III) ions (Figure S5).\nPotentiometric titrations were performed using an automatic titrator system Titrando 905 (Metrohm) equipped with a 800 Dosino dosing unit and a microburet with a volume of 2 mL. A combined glass electrode was calibrated each day for hydrogen ion concentration by 0.1 M HClO4 with CO2-free 0.1 M NaOH solutions. A stream of high purity grade argon, presaturated with water vapor, passed over the surface of the solution cell, filled with 3 mL of the studied solution. For each system, a minimum of four independent titrations was performed. […]"}, "[6]": {"design": "method as in PMID 11673947", "conditions": "cited from earlier work"}, "[7]": {"design": "method as in Ref 3 (supplement)", "conditions": "ref Ref 3 (supplement); cited from earlier work"}},
  "note": "“Also recorded” adds a separate entry of the source. Like-named read-outs stand apart in the source and are kept apart here. Marks after values point to notes of the source that are not given here.",
  "data": [
    {"molecule": "CC(=O)N(O)CCCCCNC(=O)CCC(=O)N(O)CCCCCNC(=O)CCC(=O)N(O)CCCCCN", "note": "[DFOB]", "values": [
      {"measurement": "logβGa(III)L", "setting": "[1]", "result": "27.56 ^g"},
      {"measurement": "pGa(III)", "setting": "[1]", "result": "21.6 ^g"},
      {"measurement": "logβFe(III)L", "setting": "[2]", "result": "31.10 ^g"},
      {"measurement": "pFe(III)", "setting": "[2]", "result": "26.3 ^f"}
    ]},
    {"molecule": "O=C1CCCCCCN(O)C(=O)CCNC(=O)CCCCCCN(O)C(=O)CCNC(=O)CCCCCCN(O)C(=O)CCN1", "note": "[FOX 2-6]", "values": [
      {"measurement": "solubility", "setting": "[3]", "result": "not water soluble in concentrations used during our assays; also recorded: not soluble in H2O nor in a H2O/DMSO 70/30 w/w mixture"},
      {"measurement": "logD at 20 min", "setting": "[4]", "result": -0.58}
    ]},
    {"molecule": "transferrin: strong iron-binding ligand present in living organisms, literature comparator for pM", "values": [
      {"measurement": "pGa(III)", "setting": "[1]", "result": "20.3 ^i"},
      {"measurement": "pFe(III)", "setting": "[2]", "result": "25.6 ^h"}
    ]},
    {"molecule": "O=C1CCC(=O)N(O)CCCCCNC(=O)CCC(=O)N(O)CCCCCNC(=O)CCC(=O)N(O)CCCCCN1", "note": "[FOXE, desferrioxamine E]", "values": [
      {"measurement": "logβ[GaL]", "setting": "[5]; UV-Vis (metal–metal competition) titrations, [L] = 1·10^-4 M, M:L 1:1, T = 25°C, I = 0.1 M NaClO4", "result": "29.79 (1)"},
      {"measurement": "pGa(III)", "setting": "[5]; calculated, pH 7.4", "result": 25.2},
      {"measurement": "logβGa(III)L", "setting": "[5]; potentiometric [L] = 1 × 10^–3 M and UV–vis 5 × 10^–5 M, M:L 1:1, T = 25 °C, I = 0.1 M NaClO4", "result": "29.79(1)"},
      {"measurement": "E1/2 vs NHE", "setting": "[6]", "result": "–477 ^d mv"},
      {"measurement": "logβFe(II)", "setting": "[6]", "result": "12.1 ^d"},
      {"measurement": "pFe(III)", "setting": "[2]", "result": "27.3 ^c"},
      {"measurement": "protonation constant logβ, H2L + H+ ↔ H3L", "setting": "[7]", "result": 27.94},
      {"measurement": "protonation constant logβ, HL + H+ ↔ H2L", "setting": "[7]", "result": 19.31},
      {"measurement": "protonation constant logβ, L + H+ ↔ HL", "setting": "[7]", "result": 9.89}
    ]}
  ]
}
